Results: US20080206744A1, “Functional Genomics and Gene Trapping in Haploid or Hypodiploid Cells” (priority 2004, published 2008)

Tested on: palmitoylation of GAP43:GFP in MDCK cells
Assay: Localization of the palmitoylation reporter GAP43:GFP at the plasma membrane, by microscopy and HTM algorithm
Assay type: cell-based
Settings: for effect on palmitoylation / PM localization of GAP43:GFP: MDCK cells transiently transfected with GAP43:GFP, incubation in 100 μM 2BP
Description: FIGS. 2A-2D provide characterization of the reporter of S-palmitoylation. […] Cells in FIGS. 2B, 2C and 2D are representative of many having the same morphology.
FIGS. 5A-5D illustrate the simple case of quantifying whether or not GAP43:GFP is on the PM or in the cytoplasm using the HTM algorithm. In this analysis, MDCK cells (the same images as presented in FIGS. 2A-2D), transiently transfected with GFP alone are presented in FIG. 5A; transiently transfected with GAP43:GFP are presented in FIG. 5B; and transiently transfected with GAP43:GFP in the presence of 100 μM 2BP are presented in FIG. 5C.
FIG. 6 presents a quantitative analysis of the time course of translocation of GAP43:GFP from the plasma membrane in response to 100 μM 2BP: residence half life of palmitoylation. MDCK cells stably expressing GAP43:GFP were exposed to 100 μM 2BP for 6 hours. During this time, the same field of view of cells was imaged repeatedly in two channels Hoechst/nucleus (see FIG. 6A) and GFP/PM (see FIG. 6B) on the EIDAQ100 (the three images: 6A, 6B and 6C are at time 0). The PM mask (green lines) defined by the program is shown in FIG. 6C; the nucleus is delimited by red lines. By determining the average fluorescence intensity of the area defined by the PM mask (see FIG. 6D), PM labeling was reduced by 80% from the maximum (or starting) density during the 6 hour period.
This algorithm is able to make a simple binary decision of whether GAP43:GFP is on the PM or in the cytoplasm (see FIG. 5) as well as fine incremental determinations (see FIG. 6) of the quantity of fluorescence on the PM, thereby extending the capability beyond what is necessary to score the primary screen for trapped genes. Two important questions are answered here. Data in FIGS. 5A-5D illustrate that the algorithm is sufficient to ensure success in a screen to find genes critical in the pathway for palmitoylation of the reporter in an ICR-2A reporter cell line.

## CCCCCCCCCCCCCCC(Br)C(=O)O (stereo not drawn) [2BP, 2-bromopalmitate]
MDCK cells stably expressing GAP43:GFP, 100 μM 2BP, 6 hour period, EIDAQ100 imaging
  reduction of PM labeling (average fluorescence intensity of the area defined by the PM mask) from the maximum (starting) density: 80%
  effect on palmitoylation / PM localization of GAP43:GFP: localization to the PM has been inhibited
Listed as 2-bromopalmitate
  effect on palmitoylation / PM localization of GAP43:GFP: palmitoylation is inhibited
